Data published in ChEMBL document CHEMBL1145390, “Synthesis and preliminary biological characterization of new semisynthetic derivatives of ramoplanin” (J Med Chem, 2007).
Values after ≈ are worked out from the molar mass of the structure shown.

Tests used:
[1] = tested on: Enterococcus faecalis; experiment: Antibacterial activity against Enterococcus faecalis after 24 hrs by broth microdilution method; assay type: functional
[2] = tested on: Staphylococcus aureus; experiment: Antibacterial activity against Staphylococcus aureus Smith after 24 hrs by broth microdilution method; assay type: functional
[3] = tested on: Staphylococcus aureus; experiment: Antibacterial activity against methicillin-resistant Staphylococcus aureus clinical isolate after 24 hrs by broth microdilution method; assay type: functional
[4] = tested on: Staphylococcus aureus; experiment: Antibacterial activity against methicillin-resistant and vancomycin-intermediate resistant Staphylococcus aureus clinical isolate after 24 hrs by broth microdilution method; assay type: functional
[5] = tested on: Staphylococcus aureus; experiment: Antibacterial activity against vancomycin-intermediate resistant Staphylococcus aureus clinical isolate after 24 hrs by broth microdilution method; assay type: functional
[6] = tested on: Streptococcus pyogenes; experiment: Antibacterial activity against Streptococcus pyogenes C203 after 24 hrs by broth microdilution method; assay type: functional; conditions: C203, 24 h
[7] = tested on: Enterococcus faecalis; experiment: Antibacterial activity against vancomycin A-resistant Enterococcus faecalis after 24 hrs by broth microdilution method; assay type: functional
[8] = tested on: Enterococcus faecium; experiment: Antibacterial activity against Enterococcus faecium after 24 hrs by broth microdilution method; assay type: functional
[9] = tested on: Enterococcus faecium; experiment: Antibacterial activity against vancomycin A-resistant Enterococcus faecium clinical isolate after 24 hrs by broth microdilution method; assay type: functional
[10] = tested on: Escherichia coli; experiment: Antibacterial activity against Escherichia coli SKF-12140 after 24 hrs by broth microdilution method; assay type: functional
[11] = tested on: Candida albicans; experiment: Antifungal activity against Candida albicans SKF-2270 after 24 hrs by broth microdilution method; assay type: functional
[12] = Toxicity assessed as hemolysis in erythrocytes at 180 mg/L; assay type: cell-based, Erythrocyte; conditions: human; for hemolysis at 180 mg/L: erythrocytes, read-out: Activity; for Activity: erythrocyte
[13] = Toxicity assessed as hemolysis in erythrocytes at 90 mg/L; assay type: cell-based, Erythrocyte; conditions: human; for hemolysis at 90 mg/L: erythrocytes, read-out: Activity; for Activity: erythrocyte

SMILES | MIC ([1]; read-out: MIC) | MIC ([2]; read-out: MIC) | MIC ([3]; read-out: MIC) | MIC ([4]; read-out: MIC) | MIC [5] | MIC ([6]; read-out: MIC) | MIC ([7]; read-out: MIC) | MIC ([8]; read-out: MIC) | MIC ([9]; read-out: MIC) | MIC ([10]; read-out: MIC) | MIC ([11]; read-out: MIC) | hemolysis at 180 mg/L [12] | hemolysis at 90 mg/L [13] | MIC [4] | MIC [6] | MIC [10] | MIC [11] | Activity [12] | Activity [13] | other results
CC(C)C[C@@H]1NC(=O)CNC(=O)[C@H](c2ccc(O)cc2)NC(=O)[C@@H]([C@@H](C)O)NC(=O)[C@H](c2ccc(O[C@H]3O[C@H](CO)[C@@H](O)[C@H](O)[C@@H]3O[C@H]3O[C@H](CO)[C@@H](O)[C@H](O)[C@@H]3O)cc2)NC(=O)[C@@H](CCCN)NC(=O)[C@H](Cc2ccccc2)NC(=O)[C@H]([C@@H](C)O)NC(=O)[C@@H](c2ccc(O)cc2)NC(=O)[C@H](c2ccc(O)cc2)NC(=O)[C@@H](C(C)C)NC(=O)[C@@H](CCCN)NC(=O)[C@@H](c2ccc(O)cc2)NC(=O)[C@@H](CNC(=O)[C@H](CC(N)=O)NC(=O)c2ccc(Cl)cc2)[C@@H](C(N)=O)OC(=O)[C@H](c2ccc(O)c(Cl)c2)NC(=O)[C@@H](C)NC1=O | 0.5 µg/mL (≈ 0.195 µM) | 0.5 µg/mL (≈ 0.195 µM) | 1 µg/mL (≈ 0.389 µM) | 4 µg/mL (≈ 1.56 µM) | 2 µg/mL (≈ 0.779 µM) | < 0.03 µg/mL | 0.5 µg/mL (≈ 0.195 µM) | 0.5 µg/mL (≈ 0.195 µM) | 0.5 µg/mL (≈ 0.195 µM) | > 32 µg/mL | > 32 µg/mL | 13% | 5% | – | – | – | – | – | – | –
Cc1ccc(C(=O)N[C@@H](CC(N)=O)C(=O)NC[C@@H]2C(=O)N[C@H](c3ccc(O)cc3)C(=O)N[C@H](CCCN)C(=O)N[C@H](C(C)C)C(=O)N[C@@H](c3ccc(O)cc3)C(=O)N[C@H](c3ccc(O)cc3)C(=O)N[C@@H]([C@@H](C)O)C(=O)N[C@@H](Cc3ccccc3)C(=O)N[C@H](CCCN)C(=O)N[C@@H](c3ccc(O[C@H]4O[C@H](CO)[C@@H](O)[C@H](O)[C@@H]4O[C@H]4O[C@H](CO)[C@@H](O)[C@H](O)[C@@H]4O)cc3)C(=O)N[C@H]([C@@H](C)O)C(=O)N[C@@H](c3ccc(O)cc3)C(=O)NCC(=O)N[C@@H](CC(C)C)C(=O)N[C@H](C)C(=O)N[C@@H](c3ccc(O)c(Cl)c3)C(=O)O[C@@H]2C(N)=O)cc1 | 2 µg/mL (≈ 0.785 µM) | 4 µg/mL (≈ 1.57 µM) | 4 µg/mL (≈ 1.57 µM) | 4 µg/mL (≈ 1.57 µM) | 8 µg/mL (≈ 3.14 µM) | < 0.03 µg/mL | 2 µg/mL (≈ 0.785 µM) | 4 µg/mL (≈ 1.57 µM) | 2 µg/mL (≈ 0.785 µM) | > 32 µg/mL | > 32 µg/mL | 3% | 5% | – | – | – | – | – | – | –
CC(C)C[C@@H]1NC(=O)CNC(=O)[C@H](c2ccc(O)cc2)NC(=O)[C@@H]([C@@H](C)O)NC(=O)[C@H](c2ccc(O[C@H]3O[C@H](CO)[C@@H](O)[C@H](O)[C@@H]3O[C@H]3O[C@H](CO)[C@@H](O)[C@H](O)[C@@H]3O)cc2)NC(=O)[C@@H](CCCN)NC(=O)[C@H](Cc2ccccc2)NC(=O)[C@H]([C@@H](C)O)NC(=O)[C@@H](c2ccc(O)cc2)NC(=O)[C@H](c2ccc(O)cc2)NC(=O)[C@@H](C(C)C)NC(=O)[C@@H](CCCN)NC(=O)[C@@H](c2ccc(O)cc2)NC(=O)[C@@H](CNC(=O)[C@H](CC(N)=O)NC(=O)CCCc2ccccc2)[C@@H](C(N)=O)OC(=O)[C@H](c2ccc(O)c(Cl)c2)NC(=O)[C@@H](C)NC1=O | 1 µg/mL (≈ 0.388 µM) | 1 µg/mL (≈ 0.388 µM) | 2 µg/mL (≈ 0.776 µM) | 8 µg/mL (≈ 3.11 µM) | 8 µg/mL (≈ 3.11 µM) | ≤ 0.03 µg/mL | 1 µg/mL (≈ 0.388 µM) | 2 µg/mL (≈ 0.776 µM) | 2 µg/mL (≈ 0.776 µM) | > 32 µg/mL | > 32 µg/mL | 0% | 0% | – | – | – | – | – | – | –
Cc1ccc(CC(=O)N[C@@H](CC(N)=O)C(=O)NC[C@@H]2C(=O)N[C@H](c3ccc(O)cc3)C(=O)N[C@H](CCCN)C(=O)N[C@H](C(C)C)C(=O)N[C@@H](c3ccc(O)cc3)C(=O)N[C@H](c3ccc(O)cc3)C(=O)N[C@@H]([C@@H](C)O)C(=O)N[C@@H](Cc3ccccc3)C(=O)N[C@H](CCCN)C(=O)N[C@@H](c3ccc(O[C@H]4O[C@H](CO)[C@@H](O)[C@H](O)[C@@H]4O[C@H]4O[C@H](CO)[C@@H](O)[C@H](O)[C@@H]4O)cc3)C(=O)N[C@H]([C@@H](C)O)C(=O)N[C@@H](c3ccc(O)cc3)C(=O)NCC(=O)N[C@@H](CC(C)C)C(=O)N[C@H](C)C(=O)N[C@@H](c3ccc(O)c(Cl)c3)C(=O)O[C@@H]2C(N)=O)cc1 | 0.002 µg/mL (≈ 0.000781 µM) | 0.001 µg/mL (≈ 0.00039 µM) | 0.002 µg/mL (≈ 0.000781 µM) | – | 0.008 µg/mL (≈ 0.00312 µM) | – | 0.002 µg/mL (≈ 0.000781 µM) | 0.004 µg/mL (≈ 0.00156 µM) | 0.002 µg/mL (≈ 0.000781 µM) | – | – | – | – | 8 µg/mL (≈ 3.12 µM) | 0.06 µg/mL (≈ 0.0234 µM) | > 32 µg/mL | > 32 µg/mL | 0% | 0% | –
CCCCCCCC(=O)N[C@@H](CC(N)=O)C(=O)NC[C@@H]1C(=O)N[C@H](c2ccc(O)cc2)C(=O)N[C@H](CCCN)C(=O)N[C@H](C(C)C)C(=O)N[C@@H](c2ccc(O)cc2)C(=O)N[C@H](c2ccc(O)cc2)C(=O)N[C@@H]([C@@H](C)O)C(=O)N[C@@H](Cc2ccccc2)C(=O)N[C@H](CCCN)C(=O)N[C@@H](c2ccc(O[C@H]3O[C@H](CO)[C@@H](O)[C@H](O)[C@@H]3O[C@H]3O[C@H](CO)[C@@H](O)[C@H](O)[C@@H]3O)cc2)C(=O)N[C@H]([C@@H](C)O)C(=O)N[C@@H](c2ccc(O)cc2)C(=O)NCC(=O)N[C@@H](CC(C)C)C(=O)N[C@H](C)C(=O)N[C@@H](c2ccc(O)c(Cl)c2)C(=O)O[C@@H]1C(N)=O | – | – | 0.0005 µg/mL (≈ 0.000196 µM) | – | 0.002 µg/mL (≈ 0.000782 µM) | – | – | – | – | – | – | – | – | 4 µg/mL (≈ 1.56 µM) | < 0.03 µg/mL | > 32 µg/mL | > 32 µg/mL | 16% | 0% | MIC [1]: 0.125 µg/mL (≈ 0.0489 µM); MIC [2]: 0.25 µg/mL (≈ 0.0978 µM); MIC [7]: 0.06 µg/mL (≈ 0.0235 µM); MIC [8]: 0.25 µg/mL (≈ 0.0978 µM); MIC [9]: 0.125 µg/mL (≈ 0.0489 µM)
CC(C)C[C@@H]1NC(=O)CNC(=O)[C@H](c2ccc(O)cc2)NC(=O)[C@@H]([C@@H](C)O)NC(=O)[C@H](c2ccc(O[C@H]3O[C@H](CO)[C@@H](O)[C@H](O)[C@@H]3O[C@H]3O[C@H](CO)[C@@H](O)[C@H](O)[C@@H]3O)cc2)NC(=O)[C@@H](CCCN)NC(=O)[C@H](Cc2ccccc2)NC(=O)[C@H]([C@@H](C)O)NC(=O)[C@@H](c2ccc(O)cc2)NC(=O)[C@H](c2ccc(O)cc2)NC(=O)[C@@H](C(C)C)NC(=O)[C@@H](CCCN)NC(=O)[C@@H](c2ccc(O)cc2)NC(=O)[C@@H](CNC(=O)[C@H](CC(N)=O)NC(=O)Cc2cccc3ccccc23)[C@@H](C(N)=O)OC(=O)[C@H](c2ccc(O)c(Cl)c2)NC(=O)[C@@H](C)NC1=O | – | – | – | – | 0.0005 µg/mL (≈ 0.000192 µM) | – | – | – | – | – | – | – | – | 1 µg/mL (≈ 0.385 µM) | ≤ 0.03 µg/mL | > 32 µg/mL | > 32 µg/mL | 28% | 15% | MIC [1]: 0.125 µg/mL (≈ 0.0481 µM); MIC [2]: 0.25 µg/mL (≈ 0.0962 µM); MIC [3]: 0.125 µg/mL (≈ 0.0481 µM); MIC [7]: 0.125 µg/mL (≈ 0.0481 µM); MIC [8]: 0.25 µg/mL (≈ 0.0962 µM); MIC [9]: 0.25 µg/mL (≈ 0.0962 µM)
CCCCCCC(=O)N[C@@H](CC(N)=O)C(=O)NC[C@@H]1C(=O)N[C@H](c2ccc(O)cc2)C(=O)N[C@H](CCCN)C(=O)N[C@H](C(C)C)C(=O)N[C@@H](c2ccc(O)cc2)C(=O)N[C@H](c2ccc(O)cc2)C(=O)N[C@@H]([C@@H](C)O)C(=O)N[C@@H](Cc2ccccc2)C(=O)N[C@H](CCCN)C(=O)N[C@@H](c2ccc(O[C@H]3O[C@H](CO)[C@@H](O)[C@H](O)[C@@H]3O[C@H]3O[C@H](CO)[C@@H](O)[C@H](O)[C@@H]3O)cc2)C(=O)N[C@H]([C@@H](C)O)C(=O)N[C@@H](c2ccc(O)cc2)C(=O)NCC(=O)N[C@@H](CC(C)C)C(=O)N[C@H](C)C(=O)N[C@@H](c2ccc(O)c(Cl)c2)C(=O)O[C@@H]1C(N)=O | 0.5 µg/mL (≈ 0.197 µM) | 1 µg/mL (≈ 0.393 µM) | 1 µg/mL (≈ 0.393 µM) | 8 µg/mL (≈ 3.15 µM) | 4 µg/mL (≈ 1.57 µM) | < 0.03 µg/mL | 0.5 µg/mL (≈ 0.197 µM) | 1 µg/mL (≈ 0.393 µM) | 1 µg/mL (≈ 0.393 µM) | > 32 µg/mL | > 32 µg/mL | 1% | 2% | – | – | – | – | – | – | –
CC(C)C[C@@H]1NC(=O)CNC(=O)[C@H](c2ccc(O)cc2)NC(=O)[C@@H]([C@@H](C)O)NC(=O)[C@H](c2ccc(O[C@H]3O[C@H](CO)[C@@H](O)[C@H](O)[C@@H]3O[C@H]3O[C@H](CO)[C@@H](O)[C@H](O)[C@@H]3O)cc2)NC(=O)[C@@H](CCCN)NC(=O)[C@H](Cc2ccccc2)NC(=O)[C@H]([C@@H](C)O)NC(=O)[C@@H](c2ccc(O)cc2)NC(=O)[C@H](c2ccc(O)cc2)NC(=O)[C@@H](C(C)C)NC(=O)[C@@H](CCCN)NC(=O)[C@@H](c2ccc(O)cc2)NC(=O)[C@@H](CNC(=O)[C@H](CC(N)=O)NC(=O)Cc2ccc(O)cc2)[C@@H](C(N)=O)OC(=O)[C@H](c2ccc(O)c(Cl)c2)NC(=O)[C@@H](C)NC1=O | > 32 µg/mL | > 32 µg/mL | > 32 µg/mL | > 32 µg/mL | > 32 µg/mL | 1 µg/mL (≈ 0.39 µM) | – | > 32 µg/mL | – | > 32 µg/mL | > 32 µg/mL | 0% | 0% | – | – | – | – | – | – | –
